Legend:
Gram-negative bacteria = test: MIC range over a broad range of Gram-negative bacteria; format: cell-based; details: broad range of Gram-negative bacteria (Table 9)
Description: CEME and CEMA were able to kill a broad range of Gram-negative bacteria with MICs ranging from 1-16 μg/ml (Table 9). These bacteria included many of the life-threatening gram-negative pathogens associated with septicemia and endotoxic shock.
(§1) Bacteria included the Bort strain of E. coli (Bortolussi, et al., Inf. Immun., 25:293, 1979) that was originally derived from a case of neonatal meningitis, and which is therefore considered a relevant pathogenic strain to study, and the 0111:B4 strain of E. coli (kindly provided by Dr. D. Morrison) which is a standard source of endotoxin. (Kelly, et al., Inf. Immun., 59:4491, 1991). In addition, P. aeruginosa PA01 strain H103, P. aeruginosa M2, P. aeruginosa K799, Eschericha coli UB 1005, Enterobacter cloacae 218S, Salmonella typhimurium MS7953s, Klebsiella pneumoniae ATCC 13883, Xanthomonas maltophilia ATCC 13637, and Acinetobacter calcoacetious 8193 were employed. LPS was obtained from E. coli Bort by the technique of Westphal and Jann, (Westphal, et al., Acad. Press, Inc. NY., 5:83) and from P. aeruginosa H103 by the method of Darveau and Hancock, (Darveau, et al., J. Bacteriol, 155:831, […]). E. coli 0111:B4 LPS was purchased from Sigma.

[1] = Lethality of peptide alone in mice; format: in vivo
S. aureus = test: microbe, parasite or virus in culture; format: cell-based, Staphylococcus aureus; details: fragments of CEMA, strain not given
Description: (§2) The minimum inhibitory concentrations of (MIC) of CEME, CEMA and melittin were determined for a number of different bacteria (Table 2). Briefly, cells were grown overnight at 37° C. in LB-S (Luria broth without any salt supplement) and diluted one in 10,000 in the same medium to give concentrations of about 10^4 to 10^5 CFU/ml. The broth dilutions were set up in a 96 well microtiter plate by putting 200 μl of LB-S containing the initial concentration of antibiotic or compound in column 1 and 100 μl of the same medium in columns 2-12. The compounds were diluted by taking 100 μl of broth from column 1 and mixing it with column 2, resulting in a one in two dilution. This was continued to column 10. Finally, 10 μl of bacteria were pipetted into columns 1-11, and the plates incubated overnight at 37° C. The next day the plates were scored for growth in the wells, and the MIC determined.

E. coli = test: microbe, parasite or virus in culture; format: cell-based, Escherichia coli; details: fragments of CEMA, strain not given
Description: as §2, §1

Candida albicans = test: MIC, same assay; format: cell-based; details: fragments of CEMA
P. aeruginosa = test: microbe, parasite or virus in culture; format: cell-based, Pseudomonas aeruginosa; details: fragments of CEMA, strain not given
Description: as §2, §1

[2] = test system: P. aeruginosa H309 or E. cloacae 218R1; test: Lysozyme lysis assay (outer membrane permeabilization); format: cell-based, Pseudomonas aeruginosa; Enterobacter cloacae; details: 50 μg/ml lysozyme, varying concentrations of compound
Description: Membrane permeabilization by polycationic compounds was measured in two different assays. The first assay measured membrane disruption by the ability of lysozyme to reach the periplasm and cause cell lysis. […] The uptake of lysozyme into whole cells due to membrane permeabilization by various compounds was previously described in Hancock, et al., Antimicrobial Agents and Chemo., 19:777, 1981. Overnight cultures of P. aeruginosa H309 or E. cloacae 218R1 grown in LB-S were diluted 1 in 50 in fresh medium and grown to an OD600 =0.5-0.6. The cells were harvested in a Silencer H-103N clinical centrifuge at 1800 g for 10 min, washed once with one volume of assay buffer (5 mM HEPES pH 7.2, 5 mM KCN), and resuspended in the same buffer to an OD600 of 0.5. Assays consisted of 600 μl of cells with 50 μg/ml of chicken egg white lysozyme and varying concentrations of cationic compounds. Cell lysis was measured as a decrease in the OD600 in a Perkin-Elmer dual beam spectrophotometer. Parallel experiments performed without lysozyme enabled the measurement of the lytic activity of the compounds themselves. To test whether or not permeability to lysozyme could be inhibited by divalent cations, various concentrations of MgCl2 were added to the assay after the addition of lysozyme and before the addition of the test compound.

[3] = test system: P. aeruginosa H309 or E. cloacae 218R1; format: cell-based, Pseudomonas aeruginosa; Enterobacter cloacae; details: 10 μM NPN
From the text: The second assay determined membrane permeability by the ability of 1-N-phenylnaphthylamine(NPN), a small fluorescent probe, to insert itself into the membrane. Normally, very little NPN can penetrate the outer membrane, but in the presence of a membrane permeabilizer it can insert into the hydrophobic membrane resulting in an increase in fluorescence (FIGS. 7 and 8). This N-phenylnaphthylamine uptake assay was previously described by Loh, et al., Antimicrobial Agents and Chemo., 26:546, 1984. Cells were prepared exactly the same as for the lysozyme lysis assay. 1-N-phenylnaphthylamine(NPN) was dissolved in acetone at a concentration of 500 μM. NPN fluorescence was measured in a Perkin-Elmer 650-10S fluorescent spectrophotometer using excitation and emission wavelengths set to 350 nm and 420 nm respectively, with slit widths of 5 nm. The assay was standardized by adding 20 μl of NPN (final concentration of 10 μM) and 10 μl of 0.64 mg/ml of polymyxin B (final concentration of 6.4 μg/ml) into 1 ml of cells, and adjusting the resulting fluorescence to read 90% deflection (90 arbitrary units). Various compounds were tested by adding 10 μl of different concentrations to a cuvette containing 1 ml of cells and 10 μM NPN. Permeabilizing activity was designated as the total fluorescence minus the fluorescence due to NPN alone. Following the fluorescence measurement, the OD600 of the cells was taken to ensure no significant cell lysis had occurred.

E. coli strain DC2 = test: Antibacterial activity on acid-urea gel overlaid with bacteria; format: cell-based, Escherichia coli; details: ≈10^5 E. coli strain DC2, overnight at 37° C.
Description: A sample of the partially purified CEME protein was electrophoresed on a 15% acid-urea gel, which separates proteins based on charge and mass (Panyim and Chalkey, Arch. Biochem. Biophys., 130:337, 1969). The pH of the buffer is acidic (≈pH 5.0) and the polarity is reversed such that proteins migrate to the cathode. Therefore, the small cationic peptides run relatively quickly through the gel and thus can be easily identified. Antibacterial activity was tested as previously described (Hultmark, Eur. J. Biochem., 106:7, 1980). The gel was incubated in Mueller Hinton broth+0.2M NaPO4 pH 7.4 for 1 hr. It was overlaid with 5 mls of the same media containing 0.6% agar and ≈10^5 E. coli strain DC2, and then again with 5 ml of the same media containing only 0.6% agar. […] Melittin is used as a positive control due to its antibacterial activity and similarity in size and PI values.

CC[C@H](C)[C@H](NC(=O)CNC(=O)[C@@H](NC(=O)[C@H](CCCCN)NC(=O)[C@H](CCCCN)NC(=O)[C@H](Cc1ccccc1)NC(=O)[C@H](CC(C)C)NC(=O)[C@H](CCCCN)NC(=O)[C@H](Cc1c[nH]c2ccccc12)NC(=O)[C@@H](N)CCCCN)[C@@H](C)CC)C(=O)NCC(=O)N[C@@H](C)C(=O)N[C@H](C(=O)N[C@@H](CC(C)C)C(=O)N[C@@H](CCCCN)C(=O)N[C@H](C(=O)N[C@@H](CC(C)C)C(=O)N[C@H](C(=O)N[C@H](C(=O)NCC(=O)N[C@@H](CC(C)C)C(=O)N1CCC[C@H]1C(=O)N[C@@H](C)C(=O)N[C@@H](CC(C)C)C(=O)N[C@H](C(=O)N[C@@H](CO)C(=O)O)[C@@H](C)CC)[C@@H](C)O)[C@@H](C)O)C(C)C)C(C)C [CEME]
MICs, range over strains (Gram-negative bacteria): 1 to 16 µg/mL | survival of mice given peptide alone ([1]; 200 μg (8.7 mg/kg) alone): survived | % Mortality ([1]; no LPS, peptide 200 ug): 0% | dead/total ([1]; no LPS, peptide 200 ug): 0/5

CC[C@H](C)[C@H](NC(=O)CN)C(=O)NCC(=O)N[C@@H](C)C(=O)N[C@H](C(=O)N[C@@H](CC(C)C)C(=O)N[C@@H](CCCCN)C(=O)N[C@H](C(=O)N[C@@H](CC(C)C)C(=O)N[C@H](C(=O)N[C@H](C(=O)NCC(=O)N[C@@H](CC(C)C)C(=O)N1CCC[C@H]1C(=O)N[C@@H](C)C(=O)N[C@@H](CC(C)C)C(=O)N[C@@H](CCCCN)C(=O)N[C@@H](CC(C)C)C(=O)N[C@H](C(=O)N[C@@H](CCCCN)C(=O)O)[C@@H](C)O)[C@@H](C)O)[C@@H](C)O)C(C)C)C(C)C [MA]
MIC (S. aureus): greater than 64 ug/ml | MIC (E. coli): greater than 64 ug/ml | MIC (Candida albicans): greater than 64 ug/ml | MIC (P. aeruginosa): greater than 64 ug/ml

CC[C@H](C)[C@H](NC(=O)CN)C(=O)NCC(=O)N[C@@H](C)C(=O)N[C@H](C(=O)N[C@@H](CC(C)C)C(=O)N[C@@H](CCCCN)C(=O)N[C@H](C(=O)N[C@@H](CC(C)C)C(=O)N[C@H](C(=O)N[C@H](C(=O)NCC(=O)N[C@@H](CC(C)C)C(=O)N1CCC[C@H]1C(=O)N[C@@H](C)C(=O)N[C@@H](CC(C)C)C(=O)N[C@H](C(=O)N[C@@H](CO)C(=O)N[C@@H](Cc1c[nH]c2ccccc12)C(=O)N[C@H](C(=O)N[C@@H](CCCCN)C(=O)N[C@@H](CCCNC(=N)N)C(=O)N[C@@H](CCCCN)C(=O)N[C@@H](CCCNC(=N)N)C(=O)N[C@@H](CCC(N)=O)C(=O)N[C@@H](CCC(N)=O)C(N)=O)[C@@H](C)CC)[C@@H](C)CC)[C@@H](C)O)[C@@H](C)O)C(C)C)C(C)C [Melittin, melittin]
permeabilization of outer membrane to lysozyme [2]: did not appear to be a good permeabilizer | activity in opening up the membrane to NPN [3]: less active | antibacterial activity on overlaid gel (E. coli strain DC2): zones of clearing
